Experimental data as given in ChEMBL document CHEMBL1201862, “PubChem BioAssay data set” (2004).
Active and inactive are the calls of the source.

What was measured:
[1] = target: Protein disulfide-isomerase (Homo sapiens, UniProt P07237); experiment: inhibition of PDI-driven insulin aggregation – biochemical, turbidity, absorbance, cherry-picked samples, dose response (AID 602350); assay type: functional
[2] = luciferase reporter signal suppression in cells – H4 neuroglioma cells, luminescence, dose response (AID 1990); assay type: functional, cell-based
[3] = target: 72 kDa type IV collagenase (Homo sapiens, UniProt P08253); experiment: Dose Response validation of uHTS RPN11 inhibitor hits using a MMP-2 Fluorescence assay.; assay type: functional
Chain of 72 kDa type IV collagenase (P08253 whole entry): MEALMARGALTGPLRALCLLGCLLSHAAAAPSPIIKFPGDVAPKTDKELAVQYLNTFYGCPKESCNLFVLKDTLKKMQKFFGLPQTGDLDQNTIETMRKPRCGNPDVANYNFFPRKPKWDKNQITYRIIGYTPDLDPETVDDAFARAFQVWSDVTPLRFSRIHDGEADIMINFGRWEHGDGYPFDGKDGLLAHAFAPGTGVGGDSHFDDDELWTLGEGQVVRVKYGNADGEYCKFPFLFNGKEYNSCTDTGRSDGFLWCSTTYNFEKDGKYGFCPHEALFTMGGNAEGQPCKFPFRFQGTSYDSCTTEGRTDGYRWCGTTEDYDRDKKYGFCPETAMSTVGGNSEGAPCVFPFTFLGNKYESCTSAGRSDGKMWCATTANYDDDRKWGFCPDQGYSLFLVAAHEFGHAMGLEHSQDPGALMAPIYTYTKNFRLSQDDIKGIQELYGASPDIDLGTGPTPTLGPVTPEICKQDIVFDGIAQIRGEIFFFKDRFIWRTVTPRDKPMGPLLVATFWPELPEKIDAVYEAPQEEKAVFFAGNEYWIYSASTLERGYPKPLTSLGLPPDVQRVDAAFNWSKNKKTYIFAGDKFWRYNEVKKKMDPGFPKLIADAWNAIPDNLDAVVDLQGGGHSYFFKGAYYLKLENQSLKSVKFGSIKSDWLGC

[4] = target: 26S proteasome non-ATPase regulatory subunit 14 (Homo sapiens, UniProt O00487); experiment: inhibition of proteasome subunit RPN11 – biochemical, fluorescence polarization, uHTS hits, confirmation (AID 602368); assay type: functional
Chain of 26S proteasome non-ATPase regulatory subunit 14 (O00487 whole entry): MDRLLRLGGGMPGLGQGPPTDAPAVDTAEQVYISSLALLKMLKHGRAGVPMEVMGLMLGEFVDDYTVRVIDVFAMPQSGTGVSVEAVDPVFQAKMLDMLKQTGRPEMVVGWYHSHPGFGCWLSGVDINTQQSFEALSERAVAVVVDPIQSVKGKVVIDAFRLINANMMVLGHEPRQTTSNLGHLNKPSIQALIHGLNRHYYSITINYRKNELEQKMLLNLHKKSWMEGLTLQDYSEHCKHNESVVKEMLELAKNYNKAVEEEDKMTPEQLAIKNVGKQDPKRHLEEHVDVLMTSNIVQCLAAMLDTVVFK

[5] = target: SWI/SNF-related matrix-associated actin-dependent regulator of chromatin subfamily A member 2 (Homo sapiens, UniProt P51531); experiment: Luminescence-based cell-based high throughput dose response assay to identify activators of the function of SWI/SNF related, matrix associated, actin dependent regulator of chromatin, subfamily a, member 2 (SMARCA2, BRM).; assay type: functional
Chain of SWI/SNF-related matrix-associated actin-dependent regulator of chromatin subfamily A member 2 (P51531 whole entry): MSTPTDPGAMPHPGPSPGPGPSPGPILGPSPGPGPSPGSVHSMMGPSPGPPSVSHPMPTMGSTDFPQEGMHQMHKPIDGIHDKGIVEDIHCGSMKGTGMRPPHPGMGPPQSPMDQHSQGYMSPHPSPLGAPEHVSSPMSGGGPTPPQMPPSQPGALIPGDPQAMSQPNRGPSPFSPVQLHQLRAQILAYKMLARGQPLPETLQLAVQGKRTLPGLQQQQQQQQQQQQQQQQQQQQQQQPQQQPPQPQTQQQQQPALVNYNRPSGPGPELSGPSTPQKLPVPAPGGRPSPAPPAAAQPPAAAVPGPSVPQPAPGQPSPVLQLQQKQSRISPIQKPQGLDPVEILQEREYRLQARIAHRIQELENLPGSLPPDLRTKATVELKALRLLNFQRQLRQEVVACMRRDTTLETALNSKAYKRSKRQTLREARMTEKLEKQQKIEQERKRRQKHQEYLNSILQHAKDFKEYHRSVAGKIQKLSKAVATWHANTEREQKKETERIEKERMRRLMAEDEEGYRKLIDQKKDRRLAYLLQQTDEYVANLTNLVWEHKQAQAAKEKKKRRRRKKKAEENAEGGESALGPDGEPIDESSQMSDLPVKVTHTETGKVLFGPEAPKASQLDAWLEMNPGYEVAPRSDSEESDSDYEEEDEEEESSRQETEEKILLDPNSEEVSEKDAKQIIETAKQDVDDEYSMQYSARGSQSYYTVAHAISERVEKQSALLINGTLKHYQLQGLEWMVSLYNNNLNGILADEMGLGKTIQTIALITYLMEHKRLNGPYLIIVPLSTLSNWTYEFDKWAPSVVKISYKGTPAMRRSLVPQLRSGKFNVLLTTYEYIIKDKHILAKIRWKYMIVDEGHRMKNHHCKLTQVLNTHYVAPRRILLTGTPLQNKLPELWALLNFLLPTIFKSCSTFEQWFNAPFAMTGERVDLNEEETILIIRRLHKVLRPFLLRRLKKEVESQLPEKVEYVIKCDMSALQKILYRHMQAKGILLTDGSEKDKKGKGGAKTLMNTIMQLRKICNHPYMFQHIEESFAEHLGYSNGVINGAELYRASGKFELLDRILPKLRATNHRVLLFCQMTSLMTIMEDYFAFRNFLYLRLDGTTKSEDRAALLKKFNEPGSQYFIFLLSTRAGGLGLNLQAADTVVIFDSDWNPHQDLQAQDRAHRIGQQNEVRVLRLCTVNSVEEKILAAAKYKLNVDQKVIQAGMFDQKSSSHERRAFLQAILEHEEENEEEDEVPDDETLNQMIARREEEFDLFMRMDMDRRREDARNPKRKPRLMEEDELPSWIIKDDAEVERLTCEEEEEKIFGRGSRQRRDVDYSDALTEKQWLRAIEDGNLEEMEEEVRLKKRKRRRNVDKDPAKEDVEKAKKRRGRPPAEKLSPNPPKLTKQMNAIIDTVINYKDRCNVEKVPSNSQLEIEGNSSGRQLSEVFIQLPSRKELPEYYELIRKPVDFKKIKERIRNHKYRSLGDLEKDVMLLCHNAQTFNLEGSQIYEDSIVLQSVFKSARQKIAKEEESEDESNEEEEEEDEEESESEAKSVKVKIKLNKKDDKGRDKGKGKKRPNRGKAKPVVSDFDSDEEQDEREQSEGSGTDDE

[6] = Counterscreen for activators of the function of SWI/SNF related, matrix associated, actin dependent regulator of chromatin, subfamily a, member 2 (SMARCA2, BRM): Luminescence-based cell-based high throughput dose response assay to identify non-selective compounds using the VP16 reporter assay.; assay type: functional
[7] = alpha-synuclein stem-loop luciferase translation blockers – H4 neuroglioma cells, luminescence, confirmation (AID 1988); assay type: functional, cell-based
[8] = general cell-killing toxicity readout – plate reader, dry powder samples, cytotoxicity control for PAX8 inhibitor project, dose response (AID 743021); assay type: functional, cell-based
[9] = target: Paired box protein Pax-8 (Homo sapiens, UniProt Q06710); experiment: PAX8 transcriptional activity inhibition in RMG-I – RMG-I cells, luciferase, cherry-pick, dose response (AID 687027); assay type: functional, cell-based;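 note: luciferase reporter driven by Pax8 target thyroperoxidase promoter measured by SteadyGlo luminescence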
[10] = Luminescence Cell-Based Dose Response HTS to Identify Inhibitors of 5'UTR Stem-Loop Driven Prion Protein mRNA Translation in H4 Neuroglioblastoma Cells. [Related pubchem assays: 1827 (Project Summary), 1813 (Primary HTS)]; assay type: functional
[11] = target: Prothrombin (Bos taurus, UniProt P00735); experiment: thrombin protease inhibitors – biochemical, fluorescence polarization, uHTS hits, dose response (AID 602369); assay type: functional
[12] = target: T1, Sentrin-specific protease 6 (Homo sapiens, UniProt Q9GZR1); experiment: inhibition of human SENP6 catalytic domain – biochemical, luminescence, set 2, SAR follow-up (AID 588598); assay type: functional
T1 sequence (Q9GZR1 whole entry): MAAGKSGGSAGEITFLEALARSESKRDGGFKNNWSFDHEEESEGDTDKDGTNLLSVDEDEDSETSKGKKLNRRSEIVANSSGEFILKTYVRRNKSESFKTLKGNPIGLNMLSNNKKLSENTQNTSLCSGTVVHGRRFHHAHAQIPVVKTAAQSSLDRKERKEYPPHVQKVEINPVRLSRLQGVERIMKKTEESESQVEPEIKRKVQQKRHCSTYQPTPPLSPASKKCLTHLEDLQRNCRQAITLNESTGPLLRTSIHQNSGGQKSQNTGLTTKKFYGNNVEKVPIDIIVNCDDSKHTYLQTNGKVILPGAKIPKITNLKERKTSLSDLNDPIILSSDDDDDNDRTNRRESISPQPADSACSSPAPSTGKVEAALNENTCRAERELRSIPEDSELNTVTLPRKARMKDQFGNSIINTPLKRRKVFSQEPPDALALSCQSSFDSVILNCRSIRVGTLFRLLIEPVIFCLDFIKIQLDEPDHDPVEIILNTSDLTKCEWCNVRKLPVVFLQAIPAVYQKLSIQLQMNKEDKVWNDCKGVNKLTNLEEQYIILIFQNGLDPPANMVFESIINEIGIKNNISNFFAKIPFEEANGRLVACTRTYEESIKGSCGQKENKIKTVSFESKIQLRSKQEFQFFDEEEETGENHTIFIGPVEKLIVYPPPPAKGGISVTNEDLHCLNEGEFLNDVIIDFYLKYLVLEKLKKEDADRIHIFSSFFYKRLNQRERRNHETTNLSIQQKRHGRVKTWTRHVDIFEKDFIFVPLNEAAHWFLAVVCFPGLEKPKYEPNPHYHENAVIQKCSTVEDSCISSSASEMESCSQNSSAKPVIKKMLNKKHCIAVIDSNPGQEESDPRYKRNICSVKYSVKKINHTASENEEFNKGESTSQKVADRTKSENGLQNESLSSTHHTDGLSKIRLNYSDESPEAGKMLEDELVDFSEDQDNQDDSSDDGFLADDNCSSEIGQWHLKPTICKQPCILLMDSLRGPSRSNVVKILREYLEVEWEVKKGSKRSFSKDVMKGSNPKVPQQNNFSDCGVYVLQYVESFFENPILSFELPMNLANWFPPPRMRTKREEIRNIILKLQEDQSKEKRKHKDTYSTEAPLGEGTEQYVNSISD

[13] = target: T2, Caspase-3 (Homo sapiens, UniProt P42574); experiment: SAR Analysis of small molecule inhibitors of Sentrin-specific proteases (SENPs) using a Caspase-3 Selectivity assay. [Related pubchem assays (depositor defined):AID2540, AID2599, AID434973, AID489001]; assay type: functional
T2 sequence (P42574 whole entry): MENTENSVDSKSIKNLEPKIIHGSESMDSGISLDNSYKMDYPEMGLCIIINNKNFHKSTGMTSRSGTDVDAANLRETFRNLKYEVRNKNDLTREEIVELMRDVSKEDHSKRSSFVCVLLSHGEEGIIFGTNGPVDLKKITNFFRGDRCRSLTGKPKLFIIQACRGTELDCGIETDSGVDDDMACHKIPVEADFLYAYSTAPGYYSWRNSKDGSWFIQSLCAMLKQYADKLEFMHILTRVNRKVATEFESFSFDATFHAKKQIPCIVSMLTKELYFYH

[14] = target: T3, Sentrin-specific protease 7 (Homo sapiens, UniProt Q9BQF6); experiment: inhibition of human SENP7 cleavage activity – biochemical, luminescence, set 2, SAR follow-up (AID 588600); assay type: functional
T3 sequence (Q9BQF6 whole entry): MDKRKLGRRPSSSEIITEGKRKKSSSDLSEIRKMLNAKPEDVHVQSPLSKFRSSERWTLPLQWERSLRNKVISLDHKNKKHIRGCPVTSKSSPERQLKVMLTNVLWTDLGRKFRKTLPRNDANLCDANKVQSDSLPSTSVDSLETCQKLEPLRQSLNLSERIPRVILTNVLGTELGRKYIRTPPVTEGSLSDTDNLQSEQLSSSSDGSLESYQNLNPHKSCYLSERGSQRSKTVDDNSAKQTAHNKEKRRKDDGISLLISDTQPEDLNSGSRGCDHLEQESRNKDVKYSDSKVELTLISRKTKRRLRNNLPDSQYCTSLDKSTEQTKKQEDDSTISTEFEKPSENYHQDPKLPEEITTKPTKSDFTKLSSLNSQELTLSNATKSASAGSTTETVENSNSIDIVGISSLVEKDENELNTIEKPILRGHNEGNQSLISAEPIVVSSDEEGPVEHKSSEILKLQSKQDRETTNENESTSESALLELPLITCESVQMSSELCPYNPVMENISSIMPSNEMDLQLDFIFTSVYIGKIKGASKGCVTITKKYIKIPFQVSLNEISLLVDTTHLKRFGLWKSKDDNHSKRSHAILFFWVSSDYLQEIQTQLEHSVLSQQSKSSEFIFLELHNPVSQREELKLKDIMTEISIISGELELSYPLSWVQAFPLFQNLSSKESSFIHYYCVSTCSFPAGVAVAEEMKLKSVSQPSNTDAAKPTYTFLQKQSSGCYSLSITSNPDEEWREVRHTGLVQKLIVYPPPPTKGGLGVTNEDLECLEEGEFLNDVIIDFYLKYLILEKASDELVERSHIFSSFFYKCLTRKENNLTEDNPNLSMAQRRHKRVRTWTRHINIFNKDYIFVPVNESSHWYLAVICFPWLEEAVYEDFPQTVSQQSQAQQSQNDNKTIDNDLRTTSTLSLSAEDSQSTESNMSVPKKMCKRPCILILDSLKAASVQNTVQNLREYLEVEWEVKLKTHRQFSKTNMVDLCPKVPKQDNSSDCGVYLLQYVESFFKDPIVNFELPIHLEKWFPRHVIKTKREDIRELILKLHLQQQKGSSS

[15] = target: T1, Sentrin-specific protease 6; experiment: SAR Analysis of small molecule inhibitors of Sentrin-specific protease 6 (SENP6) using a Luminescent assay. [Related pubchem assays (depositor defined):AID2582, AID2599]; assay type: functional
[16] = target: T3, Sentrin-specific protease 7; experiment: inhibition of human SENP7 cleavage activity – biochemical, luminescence, SAR follow-up (AID 504497); assay type: functional
[17] = target: T2, Caspase-3; experiment: inhibition of recombinant caspase-3 activity – biochemical, luminescence, set 2, selectivity assay for SENP protease inhibitor project, SAR follow-up (AID 588599); assay type: functional
[18] = target: T4, Sentrin-specific protease 8 (Homo sapiens, UniProt Q96LD8); experiment: inhibition of sentrin protease 8 – biochemical, luminescence, set 2, SAR follow-up (AID 588601); assay type: functional
T4 sequence (Q96LD8 whole entry): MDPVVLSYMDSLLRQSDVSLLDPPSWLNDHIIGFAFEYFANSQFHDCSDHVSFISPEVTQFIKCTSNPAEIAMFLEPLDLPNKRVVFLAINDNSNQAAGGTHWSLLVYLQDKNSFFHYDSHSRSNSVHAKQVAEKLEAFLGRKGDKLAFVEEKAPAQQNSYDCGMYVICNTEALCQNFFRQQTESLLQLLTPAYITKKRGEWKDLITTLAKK

[19] = target: T4, Sentrin-specific protease 8; experiment: inhibition of human SENP8 cleavage activity – biochemical, luminescence, SAR follow-up (AID 504501); assay type: functional
[20] = target: T5, Orexin/Hypocretin receptor type 1 (Homo sapiens, UniProt O43613); experiment: Homogeneous Time Resolved Fluorescence (HTRF)-based cell-based high throughput dose response assay for antagonists of the orexin 1 receptor (OX1R; HCRTR1). [Related pubchem assays (depositor defined):AID434989, AID435008, AID463079, AID485270, AID492963, AID492964, AID492965, AID493232, AID504717, AID504718]; assay type: functional
T5 sequence (O43613 whole entry): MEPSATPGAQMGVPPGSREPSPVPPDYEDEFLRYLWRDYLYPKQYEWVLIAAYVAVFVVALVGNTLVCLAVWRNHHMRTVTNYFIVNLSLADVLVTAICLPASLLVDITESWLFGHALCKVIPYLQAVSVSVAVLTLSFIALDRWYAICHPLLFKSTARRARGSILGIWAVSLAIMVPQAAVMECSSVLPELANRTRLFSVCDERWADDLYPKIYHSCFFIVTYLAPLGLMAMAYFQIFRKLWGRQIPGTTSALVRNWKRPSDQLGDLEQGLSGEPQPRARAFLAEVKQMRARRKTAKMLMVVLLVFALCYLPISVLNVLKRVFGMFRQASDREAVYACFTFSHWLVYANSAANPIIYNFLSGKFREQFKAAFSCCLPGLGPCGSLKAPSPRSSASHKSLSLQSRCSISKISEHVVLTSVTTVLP

[21] = Counterscreen for antagonists of the orexin 1 receptor (OX1R; HCRTR1): Fluorescence-based cell-based high throughput dose response assay to identify antagonists of the parental CHO cell line. [Related pubchem assays (depositor defined):AID434989, AID435008, AID463079, AID485270, AID492963, AID492964, AID492965, AID493232, AID504699, AID504701]; assay type: functional
[22] = target: T6, Orexin receptor type 2 (Homo sapiens, UniProt O43614); experiment: Counterscreen assay for antagonists of the orexin 1 receptor (OX1R; HCRTR1): Homogeneous Time Resolved Fluorescence (HTRF)-based cell-based dose response assay for antagonists of the orexin 2 receptor (OX2R; HCRTR2), run by assay provider.; assay type: functional
T6 sequence (O43614 whole entry): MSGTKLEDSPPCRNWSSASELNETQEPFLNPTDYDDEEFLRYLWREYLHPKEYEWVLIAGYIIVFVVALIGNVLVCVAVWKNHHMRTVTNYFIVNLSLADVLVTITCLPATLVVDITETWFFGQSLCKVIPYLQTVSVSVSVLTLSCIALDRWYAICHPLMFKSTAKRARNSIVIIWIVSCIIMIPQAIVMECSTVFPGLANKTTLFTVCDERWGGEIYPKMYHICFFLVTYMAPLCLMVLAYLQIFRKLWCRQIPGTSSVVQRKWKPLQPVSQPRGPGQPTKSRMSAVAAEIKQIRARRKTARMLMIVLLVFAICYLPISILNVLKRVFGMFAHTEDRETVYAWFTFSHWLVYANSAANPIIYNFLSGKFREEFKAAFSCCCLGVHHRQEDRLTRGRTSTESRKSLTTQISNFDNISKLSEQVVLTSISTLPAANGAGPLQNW

[23] = target: T5, Orexin/Hypocretin receptor type 1; experiment: Fluorescence-based cell-based high throughput dose response assay for antagonists of the orexin 1 receptor (OX1R; HCRTR1). [Related pubchem assays (depositor defined):AID434989, AID435008, AID463079, AID485270, AID492963, AID492964, AID492965, AID493232, AID504717, AID504718]; assay type: functional
[24] = tested on: CHO-K1; experiment: Counterscreen for antagonists of the orexin 1 receptor (OX1R; HCRTR1): Homogeneous time resolved fluorescence (HTRF)-based cell-based dose response assay to identify antagonists of the parental CHO-K1 cell line. [Related pubchem assays (depositor defined):AID434989, AID435008, AID463079, AID485270, AID492963, AID492964, AID492965, AID493232, AID504699, AID504701]; assay type: functional; conditions: Cricetulus griseus;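 note: potency for inhibition of ATP-stimulated IP1 production as antagonists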
[25] = target: T6, Orexin receptor type 2; experiment: Counterscreen assay for antagonists of the orexin 1 receptor (OX1R; HCRTR1): Fluorescence-based cell-based dose response assay for antagonists of the orexin 2 receptor (OX2R; HCRTR2), run by assay provider.; assay type: functional
[26] = target: SRSF protein kinase 1 (Homo sapiens, UniProt Q96SB4); assay type: functional;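 note: measured as one member of a kinome-wide kinase profiling panel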
Chain of SRSF protein kinase 1 (Q96SB4 whole entry): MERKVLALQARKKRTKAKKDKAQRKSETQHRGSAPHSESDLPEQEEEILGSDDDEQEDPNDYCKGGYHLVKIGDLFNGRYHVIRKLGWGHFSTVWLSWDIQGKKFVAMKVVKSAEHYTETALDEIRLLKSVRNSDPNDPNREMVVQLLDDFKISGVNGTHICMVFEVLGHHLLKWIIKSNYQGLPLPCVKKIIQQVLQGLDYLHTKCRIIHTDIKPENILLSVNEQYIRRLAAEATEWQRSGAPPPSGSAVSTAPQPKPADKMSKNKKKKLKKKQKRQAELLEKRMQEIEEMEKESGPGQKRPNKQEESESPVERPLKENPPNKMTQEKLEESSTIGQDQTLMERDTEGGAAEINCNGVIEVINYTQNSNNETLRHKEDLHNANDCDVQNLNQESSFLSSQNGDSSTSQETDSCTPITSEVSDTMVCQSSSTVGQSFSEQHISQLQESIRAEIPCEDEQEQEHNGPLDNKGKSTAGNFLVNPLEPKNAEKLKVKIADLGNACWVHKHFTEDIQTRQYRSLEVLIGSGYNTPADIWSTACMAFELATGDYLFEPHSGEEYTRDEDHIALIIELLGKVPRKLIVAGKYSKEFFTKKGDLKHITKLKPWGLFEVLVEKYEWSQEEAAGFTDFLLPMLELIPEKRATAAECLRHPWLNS

[27] = target: Aurora kinase B (Homo sapiens, UniProt Q96GD4); assay type: functional
Chain of Aurora kinase B (Q96GD4 whole entry): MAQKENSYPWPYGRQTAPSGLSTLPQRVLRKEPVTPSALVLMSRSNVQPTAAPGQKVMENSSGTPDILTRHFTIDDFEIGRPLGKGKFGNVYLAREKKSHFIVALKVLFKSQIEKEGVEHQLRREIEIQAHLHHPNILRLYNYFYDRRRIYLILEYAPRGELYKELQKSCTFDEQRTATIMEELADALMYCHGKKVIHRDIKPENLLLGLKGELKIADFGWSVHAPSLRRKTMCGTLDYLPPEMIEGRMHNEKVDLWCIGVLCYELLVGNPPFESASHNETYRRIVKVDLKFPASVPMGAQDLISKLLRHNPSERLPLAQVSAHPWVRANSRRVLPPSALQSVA

[28] = target: Mitogen-activated protein kinase kinase kinase kinase 4 (Homo sapiens, UniProt O95819); assay type: functional

Chain of Protein disulfide-isomerase (P07237 whole entry): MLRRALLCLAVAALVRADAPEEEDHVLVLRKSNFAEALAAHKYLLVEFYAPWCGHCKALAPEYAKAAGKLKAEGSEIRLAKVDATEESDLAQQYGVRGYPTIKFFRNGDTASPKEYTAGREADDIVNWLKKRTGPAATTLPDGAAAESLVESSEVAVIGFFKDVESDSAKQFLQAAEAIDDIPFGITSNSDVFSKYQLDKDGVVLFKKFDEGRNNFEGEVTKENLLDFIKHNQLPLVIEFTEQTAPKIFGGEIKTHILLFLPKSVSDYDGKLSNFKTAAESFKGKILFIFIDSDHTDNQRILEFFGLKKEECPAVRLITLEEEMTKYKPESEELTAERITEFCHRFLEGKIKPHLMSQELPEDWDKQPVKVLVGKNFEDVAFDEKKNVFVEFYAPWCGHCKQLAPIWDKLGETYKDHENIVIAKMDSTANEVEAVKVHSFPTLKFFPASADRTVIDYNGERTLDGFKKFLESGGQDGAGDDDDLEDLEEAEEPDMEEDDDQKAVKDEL

COc1ccc(N2CCN(CC(=O)c3ccc(O)c(C)c3O)CC2)cc1
AC50 [1]: 19.5 µM (active)

COc1ccc(-n2nc3c(N4CCC(C(=O)NCc5cccc(C)c5)CC4)nnc(C)c3c2C)cc1
EC50 [2]: 9.83 µM (active) | IC50 [3]: > 100 µM (inactive) | IC50 [4]: 29.3 µM (active) | EC50 [5]: > 91.1 µM (inactive) | EC50 [6]: > 91.1 µM (inactive) | EC50 [7]: 6.99 µM (active) | AC50 [8]: 23.8 µM (active) | AC50 [9]: 5.58 µM (active) | EC50 [10]: 12 µM (active) | IC50 [11]: 48.7 µM (active)

COc1cc(/C=C/c2noc(-c3ccccc3O)n2)ccc1OCC(=O)O
IC50 [12]: 21.9 µM (active) | IC50 [13]: 54 µM (active) | IC50 [14]: 72.3 µM (active) | IC50 [15]: > 99 µM (inactive) | IC50 [16]: 18 µM (active) | IC50 [17]: 28.2 µM (active) | IC50 [18]: 46.3 µM (active) | IC50 [19]: > 99 µM (inactive)

CCSc1ccc([C@@H]2[C@H]3C(=O)N(CC)C(=O)[C@H]3[C@]3(C(=O)OC)CCCCN23)cc1OC
IC50 [20]: 2.65 µM (active) | IC50 [21]: > 49.8 µM (inactive) | IC50 [22]: > 50 µM (inactive) | IC50 [23]: 12.4 µM (inactive) | IC50 [24]: > 66.3 µM (inactive) | IC50 [25]: 6.4 µM (active)

COc1cccc(-n2nc(C)c3c(=O)c4cc(Cl)ccc4n(O)c32)c1
Ki [26]: 7.94 µM (active) | Ki [27]: 1.26 µM (active) | Ki [28]: 6.31 µM (active)
